Starred links: 1 amine or outer side, 2 acyl side, 3 side chain; linkers in the order of their positions; H or OH if unused. Positions of bridges follow the written chain, without caps; N, C: chain ends. Non-standard residues stand in square brackets, D forms with d. Residues, ends and D or L forms follow the SMILES beside them. *: point of attachment. hPhe(3-Cl-4-CF3) = N[C@@H](CCc1ccc(C(F)(F)F)c(Cl)c1)C(=O)O; hPhe(3-F,4-CF3) = N[C@@H](CCc1ccc(C(F)(F)F)c(F)c1)C(=O)O; NMePhe(4-CF3) = CN[C@@H](Cc1ccc(C(F)(F)F)cc1)C(=O)O; 3Oxa8azabicyclo(3.2.1)octane = C1CC2COCC1N2*; NMePhe(4-Cl) = CN[C@@H](Cc1ccc(Cl)cc1)C(=O)O; NMePhe(4-Me) = CN[C@@H](Cc1ccc(C)cc1)C(=O)O; NMedβ3hAla = C[C@H](CC(=O)[*:2])N(C)[*:1]; NMeGly(cPent) = CN[C@H](C(=O)O)C1CCCC1; NMeGly(cBu) = CN[C@H](C(=O)O)C1CCC1; NMeCha = CN[C@@H](CC1CCCCC1)C(=O)O; cisHyp = O=C(O)[C@@H]1C[C@H](O)CN1; Hyp = O=C(O)[C@@H]1C[C@@H](O)CN1; NMeChg = CN[C@H](C(=O)O)C1CCCCC1; NMeI = CC[C@H](C)[C@H](NC)C(=O)O; d(β3hL) = CC(C)C[C@@H](N)CC(=O)O; NMeD = CN[C@@H](CC(=O)O)C(=O)O; NMeL = CN[C@@H](CC(C)C)C(=O)O; NMeV = CN[C@H](C(=O)O)C(C)C; d(β3hA) = C[C@@H](N)CC(=O)O; NMeS = CN[C@@H](CO)C(=O)O; Morpholide = C1CN(*)CCO1; NMeA = CN[C@@H](C)C(=O)O; Piperidide = C1CCN(*)CC1; Pyrrolidide = C1CCN(*)C1; dNMeA = CN[C@H](C)C(=O)O; Ac5c = NC1(C(=O)O)CCCC1; Aze = O=C(O)[C@@H]1CCN1; Cyclobutyl = C1CC(*)C1; Isopentyl = CC(C)CC*; X27 = Clc1ccccc1C*; Sar = CNCC(=O)O; Propyl = CCC*
tested on: Human pancreatic cancer cell line AsPC-1; experiment: Measurement of AsPC-1 cell growth inhibition (AsPC-1 CGI); assay type: cell-based; conditions: 96 h
Description: Measurement of AsPC-1 Cell Growth Inhibition (AsPC-1 CGI)
Test compounds were serially diluted with dimethyl sulfoxide, and 200 nL was then dispensed to a U-bottom 96-well plate using Labcyte Echo. Human pancreatic cancer cell line AsPC-1 was suspended in RPMI-1640 medium supplemented with 15% fetal bovine serum to prepare a cell suspension at 1000 cells/100 μL. The cell suspension was dispensed to a plate containing a test compound at 100 μL per well and incubated at 37° C. in a 5% carbon dioxide gas incubator. 96 hours later, 80 μL of CellTiter-Glo (Promega) was added to each well and […] was measured.

IC50 [nM] | SMILES
100 to 500 | CC[C@H](C)[C@@H]1NC(=O)[C@H](C)N(C)C(=O)C[C@@H](C)NC(=O)[C@H](C2CCCC2)N(C)C(=O)C2(CCCC2)NC(=O)[C@@H]2CCCN2C(=O)[C@H](CCc2ccc(C(F)(F)F)c(Cl)c2)NC(=O)[C@@H](C)N(C)C(=O)[C@H](Cc2ccc(C(F)(F)F)cc2)N(C)C(=O)[C@@H]2CCN2C(=O)[C@H](C)N(C)C1=O [Compound 1497] (cyclo([Ac5c][NMeGly(cPent)][d(β3hA)][NMeA]I[NMeA][Aze][NMePhe(4-CF3)][dNMeA][hPhe(3-Cl-4-CF3)]P))
> 500 | CC[C@H](C)[C@@H]1NC(=O)[C@H](CC(C)C)N(C)C(=O)C[C@@H](C)NC(=O)[C@H](CC(C)C)N(C)C(=O)C2(CCCC2)NC(=O)[C@@H]2C[C@@H](O)CN2C(=O)[C@H](CCc2ccc(C(F)(F)F)c(F)c2)NC(=O)CN(C)C(=O)[C@H](CC2CCCCC2)N(C)C(=O)CN(C)C(=O)CN(C)C1=O [Compound 1483, (3S,9S,18S,21S,25R,28S,34S,36R)-9-(cyclohexylmethyl)-3-[2-[3-fluoro-4-(trifluoromethyl)phenyl]ethyl]-36-hydroxy-21,28-diisobutyl-7,10,13,16,22,25,29-heptamethyl-18-[(1S)-1-methylpropyl]spiro[1,4,7,10,13,16,19,22,26,29,32-undecazabicyclo[32.3.0]heptatriacontane-31,1′-cyclopentane]-2,5,8,11,14,17,20,23,27,30,33-undecone] (cyclo([Ac5c][NMeL][d(β3hA)][NMeL]I[Sar][Sar][NMeCha][Sar][hPhe(3-F,4-CF3)][Hyp]))
100 to 500 | CC[C@H](C)[C@@H]1NC(=O)[C@H](CC(C)C)N(C)C(=O)C[C@@H](CC(C)C)NC(=O)[C@H]([C@@H](C)CC)N(C)C(=O)C2(CCCC2)NC(=O)[C@@H]2CCCN2C(=O)[C@H](CCc2ccc(C(F)(F)F)c(Cl)c2)NC(=O)CN(C)C(=O)[C@H](CC2CCCCC2)N(C)C(=O)[C@@H]2CCN2C(=O)[C@H](C)N(C)C1=O [Compound 798] (cyclo([Ac5c][NMeI][d(β3hL)][NMeL]I[NMeA][Aze][NMeCha][Sar][hPhe(3-Cl-4-CF3)]P))
50 to 100 | CCCOC[C@H]1C(=O)N(C)CC(=O)N[C@@H](CCc2ccc(C(F)(F)F)c(Cl)c2)C(=O)N2CCC[C@H]2C(=O)NC2(CCCC2)C(=O)N(C)[C@@H](C2CCCCC2)C(=O)N(C)[C@H](C(=O)N2CCOCC2)CC(=O)N(C)[C@@H](CC(C)C)C(=O)N[C@@H]([C@@H](C)CC)C(=O)N(C)CC(=O)N(C)CC(=O)N1C [Compound 1966] ([NMeL]I[Sar][Sar][NMeS](Propyl)[Sar][hPhe(3-Cl-4-CF3)]P[Ac5c][NMeChg][NMeD]-Morpholide; lactam N-11)
20 to 50 | CCCOC[C@H]1C(=O)N(C)CC(=O)N[C@@H](CCc2ccc(C(F)(F)F)c(F)c2)C(=O)N2CCC[C@H]2C(=O)NC2(CCCC2)C(=O)N(C)[C@@H](C2CCCC2)C(=O)N(C)[C@H](C)CC(=O)N(C)[C@@H](CC(C)C)C(=O)N[C@@H]([C@@H](C)CC)C(=O)N(C)[C@@H](C)C(=O)N2CC[C@H]2C(=O)N1C [Compound 776] (cyclo([Ac5c][NMeGly(cPent)][NMedβ3hAla][NMeL]I[NMeA][Aze][NMeS](Propyl)[Sar][hPhe(3-F,4-CF3)]P))
20 to 50 | CC[C@H](C)[C@@H]1NC(=O)[C@H](CC(C)C)N(C)C(=O)C[C@@H](C(=O)N2CCCC2)N(C)C(=O)[C@H]([C@@H](C)CC)N(C)C(=O)C2(CCCC2)NC(=O)[C@@H]2CCCN2C(=O)[C@H](CCc2ccc(C(F)(F)F)c(F)c2)NC(=O)CN(C)C(=O)[C@H](Cc2ccc(C)cc2)N(C)C(=O)[C@@H]2CCN2C(=O)[C@H](C)N(C)C1=O [Compound 44] ([NMeL]I[NMeA][Aze][NMePhe(4-Me)][Sar][hPhe(3-F,4-CF3)]P[Ac5c][NMeI][NMeD]-Pyrrolidide; lactam N-11)
100 to 500 | CC[C@H](C)[C@@H]1NC(=O)[C@H](CC(C)C)N(C)C(=O)C[C@@H](C)NC(=O)[C@H](C(C)C)N(C)C(=O)C2(CCCC2)NC(=O)[C@@H]2CCCN2C(=O)[C@H](CCc2ccc(C(F)(F)F)c(Cl)c2)NC(=O)CN(C)C(=O)[C@H](Cc2ccc(Cl)cc2)N(C)C(=O)[C@@H]2CCN2C(=O)[C@H](C)N(C)C1=O [Compound 1018] (cyclo([Ac5c][NMeV][d(β3hA)][NMeL]I[NMeA][Aze][NMePhe(4-Cl)][Sar][hPhe(3-Cl-4-CF3)]P))

SMILES | IC50 [nM]
CC[C@H](C)[C@@H]1NC(=O)[C@H](CC(C)C)N(C)C(=O)C[C@@H](C(=O)N2CCCCC2)N(C)C(=O)[C@H](C2CCC2)N(C)C(=O)C2(CCCC2)NC(=O)[C@@H]2CCCN2C(=O)[C@H](CCc2ccc(C(F)(F)F)c(Cl)c2)NC(=O)CN(C)C(=O)[C@H](CC2CCCCC2)N(C)C(=O)[C@@H]2CCN2C(=O)[C@H](C)N(C)C1=O [Compound 672] ([NMeL]I[NMeA][Aze][NMeCha][Sar][hPhe(3-Cl-4-CF3)]P[Ac5c][NMeGly(cBu)][NMeD]-Piperidide; lactam N-11) | 100 to 500
CC[C@H](C)[C@@H]1NC(=O)[C@H](CC(C)C)N(C)C(=O)C[C@@H](C(=O)N2CCCCC2)N(C)C(=O)[C@H](CC(C)C)N(C)C(=O)C2(CCCC2)NC(=O)[C@@H]2C[C@H](OCc3ccccc3Cl)CN2C(=O)[C@H](CCc2ccc(C(F)(F)F)c(F)c2)NC(=O)CN(C)C(=O)[C@H](CC2CCCCC2)N(C)C(=O)CN(C)C(=O)CN(C)C1=O [Compound 2132] ([NMeL]I[Sar][Sar][NMeCha][Sar][hPhe(3-F,4-CF3)][cisHyp](X27)[Ac5c][NMeL][NMeD]-Piperidide; lactam N-11) | > 500
CC[C@H](C)[C@@H]1NC(=O)[C@H](CC(C)C)N(C)C(=O)C[C@@H](C(=O)N2CCCCC2)N(C)C(=O)[C@H](C(C)C)N(C)C(=O)C2(CCCC2)NC(=O)[C@@H]2CCCN2C(=O)[C@H](CCc2ccc(C(F)(F)F)c(Cl)c2)NC(=O)CN(C)C(=O)[C@H](COCCC(C)C)N(C)C(=O)[C@@H]2CCN2C(=O)[C@H](C)N(C)C1=O [Compound 470] ([NMeL]I[NMeA][Aze][NMeS](Isopentyl)[Sar][hPhe(3-Cl-4-CF3)]P[Ac5c][NMeV][NMeD]-Piperidide; lactam N-11) | 100 to 500
CCCOC[C@H]1C(=O)N(C)CC(=O)N[C@@H](CCc2ccc(C(F)(F)F)c(F)c2)C(=O)N2CCC[C@H]2C(=O)NC2(CCCC2)C(=O)N(C)[C@@H]([C@@H](C)CC)C(=O)N(C)[C@H](C(=O)N2C3CCC2COC3)CC(=O)N(C)[C@@H](CC(C)C)C(=O)N[C@@H]([C@@H](C)CC)C(=O)N(C)[C@@H](C)C(=O)N2CC[C@H]2C(=O)N1C [Compound 408] ([NMeL]I[NMeA][Aze][NMeS](Propyl)[Sar][hPhe(3-F,4-CF3)]P[Ac5c][NMeI][NMeD]-{3Oxa8azabicyclo(3.2.1)octane}; lactam N-11) | 50 to 100
CC[C@H](C)[C@@H]1NC(=O)[C@H](COC2CCC2)N(C)C(=O)C[C@@H](C(=O)N2CCCCC2)N(C)C(=O)[C@H](C(C)C)N(C)C(=O)C2(CCCC2)NC(=O)[C@@H]2CCCN2C(=O)[C@H](CCc2ccc(C(F)(F)F)c(Cl)c2)NC(=O)CN(C)C(=O)[C@H](CC2CCCCC2)N(C)C(=O)[C@@H]2CCN2C(=O)[C@H](C)N(C)C1=O [Compound 755] ([NMeS](Cyclobutyl)I[NMeA][Aze][NMeCha][Sar][hPhe(3-Cl-4-CF3)]P[Ac5c][NMeV][NMeD]-Piperidide; lactam N-11) | 100 to 500
